Test results published in BindingDB's records for doi:10.1016/j.bmc.2019.115216 (National and Kapodistrian University of Athens, 2020).

molecular target: Autotaxin (ENPP2) (Mus musculus) (UniProt Q9R1E6); experiment: Inhibition of recombinant mouse N-terminal polyHis-tagged ATX-beta (Ser49 to Ile862 residues) expressed in HEK293 cells assessed as reduction in cleavage of LPC into LPA and choline using LPC(16:0) as substrate by Amplex red reagent based fluorescence assay

**Q.** Which IC50 does the source give for `O=C(O)c1ccc(COc2ccc(CNC(=O)[C@@H]3CCC(=O)N3Cc3ccccc3)cc2)cc1` here?
**A.** 4.5 µM

**Q.** How did the IC50 turn out when `O=C(O)c1ccc(COc2ccc(CNC(=O)[C@H]3CCC(=O)N3Cc3ccccc3)cc2)cc1` was run?
**A.** > 5 µM

**Q.** How did the IC50 turn out when `O=C(O)c1ccc(COc2ccc(CNC(=O)[C@@H]3CCC(=O)N3Cc3ccc(Br)cc3)cc2)cc1` was run?
**A.** > 5 µM

**Q.** With `O=C(O)c1ccc(COc2ccc(CNC(=O)[C@@H]3CCC(=O)N3Cc3ccc(F)cc3)cc2)cc1` as the compound, how does the IC50 read?
**A.** > 5 µM

**Q.** `O=C(O)c1ccc(COc2ccc(CNC(=O)[C@@H]3CCC(=O)N3Cc3ccc(C(F)(F)F)cc3)cc2)cc1` was tested. Which IC50 did it give?
**A.** > 5 µM

**Q.** For `O=C1CC[C@@H](C(=O)NCc2ccc(OCc3ccc(C(=O)O)cc3)cc2)N1`, which IC50 is on record?
**A.** > 5 µM

**Q.** With `COC(=O)c1ccc(COc2ccc(CNC(=O)[C@@H]3CCC(=O)N3Cc3ccccc3)cc2)cc1` as the compound, how does the IC50 read?
**A.** > 5 µM

**Q.** Which IC50 does the source give for `NS(=O)(=O)c1ccc(COc2ccc(CNC(=O)[C@@H]3CCC(=O)N3Cc3ccccc3)cc2)cc1` here?
**A.** > 5 µM

**Q.** With `NS(=O)(=O)c1ccc(COc2ccc(CNC(=O)[C@@H]3CCC(=O)N3Cc3ccc(F)cc3)cc2)cc1` as the compound, how does the IC50 read?
**A.** > 5 µM

**Q.** With `NS(=O)(=O)c1ccc(COc2ccc(CNC(=O)[C@@H]3CCC(=O)N3Cc3ccc(C(F)(F)F)cc3)cc2)cc1` as the compound, how does the IC50 read?
**A.** > 5 µM

**Q.** Which IC50 does the source give for `CC1(C)OB(c2ccc(COc3ccc(CNC(=O)[C@@H]4CCC(=O)N4Cc4ccccc4)cc3)cc2)OC1(C)C` here?
**A.** 0.05 µM

**Q.** Which IC50 does the source give for `CC1(C)OB(c2ccc(COc3ccc(CNC(=O)[C@@H]4CCC(=O)N4Cc4ccc(F)cc4)cc3)cc2)OC1(C)C` here?
**A.** 0.12 µM

**Q.** For `CC1(C)OB(c2ccc(COc3ccc(CNC(=O)[C@H]4CCC(=O)N4Cc4ccccc4)cc3)cc2)OC1(C)C`, which IC50 is on record?
**A.** 0.18 µM

**Q.** For `O=C(NCc1ccc(OCc2ccccc2)cc1)[C@@H]1CCC(=O)N1Cc1ccccc1`, which IC50 is on record?
**A.** > 5 µM

**Q.** Which IC50 does the source give for `O=C(NCCc1c[nH]cn1)c1ccc(COc2ccc(CNC(=O)[C@@H]3CCC(=O)N3Cc3ccccc3)cc2)cc1` here?
**A.** > 5 µM

**Q.** With `O=C(NCCc1c[nH]cn1)c1ccc(COc2ccc(CNC(=O)[C@@H]3CCC(=O)N3Cc3ccc(F)cc3)cc2)cc1` as the compound, how does the IC50 read?
**A.** > 5 µM

**Q.** For `O=C(NO)c1ccc(COc2ccc(CNC(=O)[C@@H]3CCC(=O)N3Cc3ccccc3)cc2)cc1`, which IC50 is on record?
**A.** 0.7 µM

**Q.** For `O=C(NCc1ccc(OCc2ccc(-c3nn[nH]n3)cc2)cc1)[C@@H]1CCC(=O)N1Cc1ccccc1`, which IC50 is on record?
**A.** > 5 µM

**Q.** With `O=C(NCc1ccc(OCc2ccc(-c3nn[nH]n3)cc2)cc1)[C@@H]1CCC(=O)N1Cc1ccc(F)cc1` as the compound, how does the IC50 read?
**A.** > 5 µM

**Q.** Which IC50 does the source give for `O=C(NCc1ccc(OCc2cn(-c3ccccc3)nn2)cc1)[C@@H]1CCC(=O)N1Cc1ccccc1` here?
**A.** > 5 µM

**Q.** Which IC50 does the source give for `O=C(NCc1ccc(OCc2ccncc2)cc1)[C@@H]1CCC(=O)N1Cc1ccccc1` here?
**A.** > 5 µM

**Q.** Which IC50 does the source give for `O=C(NCc1ccc(OCc2ccc(B(O)O)cc2)cc1)[C@@H]1CCC(=O)N1Cc1ccccc1` here?
**A.** 0.035 µM

**Q.** `O=C(O)c1ccc(COc2ccc(CN3C(=O)CC[C@H]3C(=O)NCc3ccccc3)cc2)cc1` was tested. Which IC50 did it give?
**A.** > 5 µM

**Q.** With `O=C(NCc1ccccc1)[C@@H]1CCC(=O)N1Cc1ccc(OCc2ccc(-c3nn[nH]n3)cc2)cc1` as the compound, how does the IC50 read?
**A.** > 5 µM

**Q.** Which IC50 does the source give for `NS(=O)(=O)c1ccc(C(=O)NC[C@@H]2CCC(=O)N2Cc2ccccc2)cc1` here?
**A.** > 5 µM

**Q.** For `COC(=O)c1ccc(COc2ccc(CN3C(=O)CC[C@H]3Cn3ccnc3)cc2)cc1`, which IC50 is on record?
**A.** > 5 µM

**Q.** Which IC50 does the source give for `O=C(O)c1ccc(COc2ccc(CN3C(=O)CC[C@H]3Cn3ccnc3)cc2)cc1` here?
**A.** > 5 µM

**Q.** With `O=C(NCc1ccccc1)[C@@H]1CCC(=O)N1Cc1ccccc1` as the compound, how does the IC50 read?
**A.** > 5 µM

**Q.** How did the IC50 turn out when `O=C(NCc1ccc(O)cc1)[C@@H]1CCC(=O)N1Cc1ccccc1` was run?
**A.** > 5 µM

**Q.** With `O=C(O)c1ccc(COc2ccc(CNC(=O)[C@@H]3CCCN3Cc3ccccc3)cc2)cc1` as the compound, how does the IC50 read?
**A.** > 5 µM

**Q.** Which IC50 does the source give for `O=C(O)c1ccc(COc2ccc(CNC(=O)[C@@H]3CCCN3Cc3ccc(F)cc3)cc2)cc1` here?
**A.** 0.8 µM

**Q.** With `O=C(O)c1ccc(COc2ccc(CNC(=O)[C@H]3CCCN3Cc3ccc(F)cc3)cc2)cc1` as the compound, how does the IC50 read?
**A.** > 5 µM

**Q.** `O=C(NCc1ccc(OCc2ccc(-c3nn[nH]n3)cc2)cc1)[C@@H]1CCCN1Cc1ccccc1` was tested. Which IC50 did it give?
**A.** > 5 µM

**Q.** With `O=C(O)c1ccc(COc2ccc(CN3CCC[C@H]3C(=O)NCc3ccccc3)cc2)cc1` as the compound, how does the IC50 read?
**A.** > 5 µM

**Q.** Which IC50 does the source give for `O=C(NCc1ccccc1)[C@@H]1CCCN1Cc1ccc(OCc2ccc(-c3nn[nH]n3)cc2)cc1` here?
**A.** > 5 µM
